# Tests used:
# [1] = system: Bactrocera jarvisi antenna; assay: GC-EAG responses, Bactrocera jarvisi; settings: both sexes
# Source text: (§1) Coupled Gas Chromatography-Electroantennography (GC-EAG) recordings were made with Ag-glass microelectrodes filled with electroconductive gel (Spectra 360, Parker Laboratories Inc., USA). The head of male or female flies (i.e., Bactrocera tryoni, Bactrocera jarvisi, Bactrocera kraussi, and Zeugodacus cucumis) was separated from the body with a microscalpel and was placed on the tip of the indifferent electrode, making sure the base of the head is affixed to the gel in the electrode. The tip of the insect antenna was made to touch the recording electrode and was slightly inserted into the gel to stabilize the antenna. The mounted heads were under charcoal filtered and humidified air flow (2400 mL min-1) controlled by a flow controller (Stimulus Controller CS-55, Syntech, Hilversum, The Netherlands). The signals were passed through a high impedance amplifier (UN-06, Syntech, Hilversum, The Netherlands). 1-octanol or 1-nonanol were tested individually or as mixture of known concentration. After injection of compounds, the effluent from the GC column was simultaneously directed to the antennal preparation and the GC detector. […] The outputs from the EAG amplifier and the FID were monitored simultaneously and analysed using the GCEAD 2014 software v1.2.5 (Syntech, The Netherlands).
# [2] = system: Bactrocera kraussi antenna; assay: GC-EAG responses, Bactrocera kraussi; settings: both sexes
# Source text: as §1
# Bactrocera jarvisi = assay: Oviposition assay for Bactrocera jarvisi; type: in vivo; settings: 1.17% in agar plate with mango juice; P<0.0001
# Protocol: Agar plates with oviposition stimulant (MJ: Mango Juice) with 1-octanol (1.17%) or 1-nonanol (1.17%) were used as oviposition substrate to determine the oviposition deterrent activity of 1-octanol and 1-nonanol to gravid female B. jarvisi. Agar (0.8 g in 100 ml of diluted mango juice with water; 1:1) melted in a microwave, was cooled to 40° C. and appropriate amount of 1-octanol or 1-nonanol was added. This mixture was poured into Petri plates and cooled to 0° C. in a refrigerator. This was done to enhance setting of the mixture and lower volatile vaporization. Oviposition substrates were prepared freshly when required. Oviposition plate containing MJ alone (control), MJ+1-octanol or MJ+1-nonanol was provided to gravid females (20 gravid females; 15-20 days old) in cages (30×30×30 cm) to lay eggs. The eggs laid in each plate was enumerated under a stereo-dissecting microscope (Olympus, Japan). Twenty four replicates for each test compound and control were carried out.
# Zeugodacus cucumis = assay: Oviposition assay for Zeugodacus cucumis; type: in vivo; settings: 1.17% w/v with zucchini juice on agar plate; P<0.0001
# Protocol: Agar plates applied with oviposition stimulant (OS: fresh zucchini juice) with 1-octanol (1.17% w/v) or 1-nonanol (1.17% w/v) were used as oviposition substrate to determine the oviposition deterrent activity of 1-octanol and 1-nonanol to gravid female Z. cucumis. Agar (0.8 g in 100 ml water) was melted in a microwave, was cooled to 40° C. and poured into Petri plates and cooled at 0° C. Oviposition stimulant alone or OS mixed with 1-octanol or 1-nonanol (50 ul) was spread on agarose plates. Oviposition substrates were prepared freshly when required. Oviposition plate containing OS alone (control), OS+1-octanol or OS+1-nonanol was provided to gravid females (20 gravid females; 15-20 days old) in cages (30×30×30 cm) to lay eggs. The eggs laid in each plate was enumerated under a stereo-dissecting microscope (Olympus, Japan). Twenty four replicates for each test compound and control were carried out.
# [3] = system: Ceratitis capitata antenna; assay: Standalone EAG, Ceratitis capitata; settings: both sexes; ten replicates per compound per sex
# Source text: For the […], Ceratitis capitata, a standalone EAG was used for antennal recordings. Electroconductive gel (Spectra 360, Parker Laboratories Inc., USA) were applied to the arms of the metal electrodes and the head of male or female fly, separated from the body was affixed onto one of the indifferent metal arm. The recording arm with gel was made to touch a single or both the antenna of the fly. The antennal preparation was inserted to the EAG probe holder that was under filtered and humidified air the same as described above. The EAG signals were passed through a high impedance amplifier (UN-06, Syntech, Hilversum, The Netherlands). 1-Octanol or 1-nonanol of known concentrations were tested individually. The compounds (10 ul) were dispensed on a filter paper and were placed into a pasture pipette. The prepared pipettes were fixed tubing from the stimulus controller (CS-55, Syntech, The Netherlands) and the stimulus was puffed over the antennal preparation. The response was record using EAGPro software (Syntech, The Netherlands). Ten replicates were recorded for each compound per sex, with EAG activity confirmed in 100% of trials presenting 1-octanol or 1-nonanol for both sexes of C. capitata (FIG. 10E).
# [4] = system: Bactrocera tryoni antenna; assay: GC-EAG responses, Bactrocera tryoni; settings: both sexes
# Source text: as §1
# Ceratitis capitata = assay: Oviposition assay for Ceratitis capitata; type: in vivo; settings: grapes dipped in 1.17% w/v solution; P<0.0001
# Source text: Red seedless grapes from IGA express (Murdoch University, Perth) washed with warm water thrice and dried with paper towel were used as oviposition substrate. Solution of 1-octanol (1.17% w/v) or 1-nonanol (1.17% w/v) were made by mixing appropriate amounts of 1-octanol or 1-nonanol in water with ethanol as an emulsifier. Washed grapes of equal size, dipped into the above solutions for 15-20 sec, was provided to gravid females (50 gravid females; 15-20 days old) in cages (30×30×30 cm) to lay eggs. Grapes that were dipped in water and emulsifier mixture was used as control. Eggs laid in each grapes was enumerated under a stereo-dissecting microscope (Olympus, Japan). Forty replicates for each test compound and control were carried out.
# Bactrocera tryoni [5] = assay: Oviposition assay for Bactrocera tryoni; type: in vivo; settings: 1.17% w/v in agar plate with γ-octalactone; P<0.0001
# Protocol: Agar plates with oviposition stimulant (OS; γ-octalactone) with 1-octanol (1.17% w/v) or 1-nonanol (1.17% w/v) were used as oviposition substrate to determine the oviposition deterrent activity of 1-octanol and 1-nonanol to gravid female B. tryoni. Agarose (0.8 g in 100 ml water) was melted in a microwave, was cooled to 40° C. and appropriate amount of the oviposition stimulant in combination with 1-octanol or 1-nonanol was added. This mixture was poured into Petri plates and cooled at 0° C. in a refrigerator. This was done to enhance setting of the mixture and lower volatile vaporization. Oviposition substrates were prepared freshly when required. Oviposition plate containing OS alone (control), OS+1-octanol or OS+1-nonanol was provided to gravid females (50 gravid females; 15-20 days old) in cages (30×30×30 cm) to lay eggs. The eggs laid in each plate was enumerated under a stereo-dissecting microscope (Olympus, Japan). Thirty replicates for each test compound and control were carried out.
# Bactrocera kraussi = assay: Oviposition assay for Bactrocera kraussi; type: in vivo; settings: orange segments dipped in 1.17% w/v solution; P<0.0001
# Source text: Oranges from Woolworths (Marsfield, NSW) were washed with warm water and dried with paper towel. They were peeled and segmented and a single segment was used as oviposition substrate. Solution of 1-octanol (1.17% w/v) or 1-nonanol (1.17% w/v) were made by mixing appropriate amounts of 1-octanol or 1-nonanol in water with ethanol as an emulsifier. Orange segments of equal size, dipped into the above solutions for 15-20 sec, was provided to gravid females flies (20 gravid females; 20 days old) in cages (30×30×30 cm) to lay eggs. Orange segments dipped in water and emulsifier mixture was used as control. Eggs laid in each orange segment was enumerated under a stereo-dissecting microscope (Olympus, Japan). Twelve replicates for each test compound and control were carried out.
# [6] = system: Zeugodacus cucumis antenna; assay: GC-EAG responses, Zeugodacus cucumis; settings: both sexes
# Source text: as §1
# Bactrocera tryoni [7] = assay: Mating assay (mating disruption); type: in vivo; settings: of 15 trials; 5 microliters on filter paper, air pumped into arena; P<0.00001 vs control
# Protocol: Mating assays were carried out at dusk, the normal mating time of B. tryoni. A pair of 15-day old male and female flies were introduced into a behavioural arena 30 min before the onset of dusk. They were allowed to acclimatize for 20 min after which 1-octanol or filtered air was pumped through the inlet of the arena. Five microliters of 1-octanol was applied on a clean filter paper. This filter paper was placed into an air-tight vessel with an inlet and outlet. Charcoal filtered air (1 litre per hour) was pumped into the vessel from the inlet and the outlet was connected to the inlet of the arena with flies. Air from a vessel with clean filter paper was used as control. Fifteen pairs were set up for both 1-octanol treatment and air control. The activity of flies was recorded overnight, and the video was analysed using BORIS software. Collected data included (1) whether a pair mated, (2) Number of copulation attempts, and (3) copula duration.
# Bactrocera tryoni [8] = assay: Four-arm olfactometer bioassay; type: in vivo; settings: arm containing C1 vs without
# Protocol: An acrylic four-arm olfactometer (120 mm dia.) was used to measure behavioural responses of Bactrocera tryoni males/females to food (yeast hydrolysate) with or without 1-octanol (EAG-active compound). Prior to each experiment, acrylic components were washed with a non-ionic detergent solution, rinsed with ethanol solution and distilled water, and left to air dry. Experiments were conducted in a controlled environment room (25±2° C., 60% RH). The central area was fitted with a filter-paper base (Whatmann No. 1, 12 cm dia.) to provide traction for the walking insects. The room was illuminated from above by uniform lighting from white fluorescent light bulbs to negate directional bias. Individual flies (10-15 days old) were introduced through a hole below the olfactometer. Each fly was given 5 min to acclimatize in the olfactometer, after which the experiment was run for 10 min for each replicate. The olfactometer was rotated 90° after each replicate to eliminate any directional bias in the room. Air was drawn through the central hole at 200 ml min-1 and subsequently exhausted from the room. The central arena of the olfactometer was divided into four discrete odour fields corresponding to each of four inlet arms. A choice test was performed that used two different opposite arms. […] Fly activity in each olfactometer was video recorded. The time spent in each arm was recorded using BORIS software. […]
# [9] = system: Bactrocera tryoni antenna; assay: GC-EAD electrophysiology of ant extracts; settings: peak in Head and Headspace volatiles
# Source text: Coupled Gas Chromatography-Electroantennography (GC-EAG) recordings were made with Ag-glass microelectrodes filled with electroconductive gel (Spectra 360, Parker Laboratories Inc., USA). The head of male or female Bactrocera tryoni, anaesthetized by chilling, was separated from the body with a microscalpel and was placed on the tip of the indifferent electrode, making sure the base of the head is affixed to the gel in the electrode. The tip of the insect antenna was made to touch the recording electrode and was slightly inserted into the gel to stabilize the antenna. The signals were passed through a high impedance amplifier (UN-06, Syntech, Hilversum, The Netherlands) and analysed using a software package provided by Syntech. Each extract-cuticular compounds, Dufour's glands, poison glands, trail, headspace, and head extractions were tested individually. After injection of extraction samples, the effluent from the GC column was simultaneously directed to the antennal preparation and the GC detector. Separation of compounds was achieved on an Agilent Gas Chromatography system equipped with a column injector and a flame ionization detector (FID), using an Agilent HP-5 column (30 m×0.32 mm, 0.25 μm film). […] The outputs from the EAG amplifier and the FID were monitored simultaneously and analysed using the Syntech software package. […]
Compound,Trials with EAG activity [1],Trials with EAG activity [2],Eggs laid on oviposition plates vs control (Bactrocera jarvisi),Eggs laid on oviposition plates vs control (Zeugodacus cucumis),Trials with EAG activity [3],Trials with EAG activity [4],Eggs laid vs control (Ceratitis capitata),Eggs laid on oviposition plates vs control (Bactrocera tryoni [5]),Eggs laid vs control (Bactrocera kraussi),Trials with EAG activity [6],Trials in which flies attempted mating (Bactrocera tryoni [7]),Trials with successful mating (Bactrocera tryoni [7]),Time spent in olfactometer arm (Bactrocera tryoni [8]),Response in fly's antenna (GC-EAD) [9]
CCCCCCCCCO [1-nonanol],100 % of trials,100 % of trials,significantly different from control,significantly different from control,100 % of trials,100 % of trials,significantly different from control,significantly different from control,significantly different from control,100 % of trials,,,,
CCCCCCCCO [1-octanol],100 % of trials,100 % of trials,significantly different from control,significantly different from control,100 % of trials,100 % of trials,significantly different from control,significantly different from control,significantly different from control,100 % of trials,none,none,less time,trigger response

# From patent US20230337664A1, “FRUIT FLY CONTROL” (MACQUARIE UNIVERSITY, priority 2020, published 2023)
